Measured values published in patent US20240415828A1, “TLR7 AGONIST AND COMBINATIONS FOR CANCER TREATMENT” (BIONTECH SE, priority 2021, published 2024).

Key:
solid tumor = test: Clinical trial Part 1A, BNT411 monotherapy dose escalation; format: in vivo, human
Method: FIG. 8. Release of certain cytokines from preparations obtained from whole blood of human patients treated with BNT411 at various dose levels. Mean maximum fold change (+SD) calculated from the highest cytokine value observed on day 1 in treatment cycle 1 relative to baseline. IFNα and IL-6 peaked 4 to 8 hours after treatment, IP-10 and TNFa peaked 2.5 to 8 hours after treatment.
To this end, a trial was designed to assess the safety profile of BNT411 in monotherapy and in combination with atezolizumab, etoposide, and carboplatin (atezo/EC) and to determine the maximum tolerated dose/recommended phase 2 dose (MTD/RP2D). This trial comprised two parts (1A and 1B) with dose escalation, wherein the patients of part 1A received BNT411 monotherapy and patients of part 1B received BNT411 together with atezolizumab, etoposide, and carboplatin. The patients had solid tumor (preferably ES-SCLC for part 1B) and received the drugs according to the following dosing schedule (until disease progression, unacceptable toxicity, or death): • Part 1A: 3-week cycles, BNT411 i.v. Q1W for 4 cycles, then Q3W • Part 1B: 3-week cycles, BNT411 i.v. Q1W for 4 cycles, then Q3W; atezo/EC Q3W
DL1-DL3 of Part 1A were single-patient cohorts, all other dose levels were 3+3 cohorts.
Efficacy was assessed by CT/MRI imaging according to RECIST 1.1 and iRECIST every 6 weeks for 48 weeks, and every 12 weeks thereafter. Safety was assessed by physical examination, vital signs, electrocardiogram, clinical laboratory assessments, eye examinations, ECOG, pregnancy testing, and ECHO/MUGA. Biomarker assessments included tumor biopsies and blood sampling for cytokine analysis, immune phenotyping, tumor mutational burden, and TCR profiling.
As of Aug. 26, 2021, the patients were located in seven trial centers (UK, USA, Spain, Germany). Twenty-five patients were screened (Part 1A: 22; Part 1B: 3) with seven screen failures (all Part 1A). Eighteen patients enrolled (Part 1A: 15; Part 1B: 3), wherein fifteen patients were evaluable (Part 1A: 12; Part 1B: 3). Two Part 1A patients were replaced (at DL1 due to incorrect dosing and at DL5 due to PD before DLT evaluation completed). One Part 1A patient dropped out of trial before receiving treatment.
The trial population consists of histologically confirmed solid tumor patients with metastatic or unresectable disease for which there is no available standard therapy likely to confer clinical benefit, or patients who are not candidates for such available therapy.

Human PBMCs = test: In vitro human PBMC stimulation assay (IFNα, multiplexed CBA); format: cell-based; conditions: 24 h after stimulation, n=5
Method: FIG. 1. In vitro human PBMC stimulation assay. […] Data shown as mean±standard deviation (SD), n=5.
After performing a serial dilution of the test compounds (such as BNT411), 5 μL of each sample is transferred/pipetted to single wells of a 96-well-plate. As negative control, plasma which has been prepared from whole blood of each donor is used. Subsequently, 245 μL of RPMI-medium is added to each well, leading to a 1:50 dilution of each sample, named spiking solutions. The heparinized whole blood is pipetted to separate 96-well-plate. After seeding whole blood, the prepared spiking solutions are added: 190 μL of whole blood is seeded in each well and 10 μL of spiking solutions is added to get a final volume of 200 μL per well and additional 1:20 dilution of all samples. Finally, the plates are incubated at 37° C. and 5% CO2. After 24 h incubation the plates are centrifuged at 500×g for 5 min. The plasma of all samples is harvested, transferred to a new 96-well-plate and frozen at −15° C. to −25° C. until performing the CBA, but at least 3 h.
The CBA is performed with the frozen/thawed plasma samples according to the manufacturer's instructions for ProCarta multiplex kits. For evaluation of cytokine concentrations, assay duplicates of all samples are measured by using the luminex system. […]

[1] = Part 1A, patients (%), as of Aug. 26, 2021
[2] = Part 1A, patients, as of Aug. 26, 2021

With `COCCc1nc2c(N)nc3ccccc3c2n1CCCCN(C(C)=O)C1CCOCC1` [BNT411] the cytokine changes (solid tumor; DL1A, DL2A, or DL3A (0.05-0.45 μg/kg)) was “No meaningful cytokine changes”, the “induction of IFN-a and IP-10” value (solid tumor; DL5 onwards, substantially starting at DL6, data update October 2022) was “increased” and the IL-6 induction (solid tumor; DL6A) was “some increase”. The “IP-10 level relative to assay range” value (solid tumor; DL6A) was “upper limit of detection of the assay was reached”, the “induction of IFNa, IP-10, and other mode-of-action relevant cytokines” value (solid tumor; DL6A (4.8 μg/kg)) was “substantial induction” and the “tumor response (RECIST 1.1), third patient” value (solid tumor; DL7, trial Day 251, still on treatment) was “partial response”. The “dose limiting toxicity (DLT), or related grade 4-5 AEs” value (solid tumor; Part 1A) was “no”, the “TEAEs related to BNT411 monotherapy: Anaemia, Grade 4” value (solid tumor; [1]) was 2 (13%) and the “TEAEs related to BNT411 monotherapy: Blood bilirubin increased, Grade 4” value (solid tumor; [1]) was 1 (7%). For the same molecule, the “TEAEs related to BNT411 monotherapy: Chills, Grade 4” value (solid tumor; [1]) was 2 (13%), the “TEAEs related to BNT411 monotherapy: Diarrhoea, Grade 4” value (solid tumor; [1]) was 1 (7%) and the “TEAEs related to BNT411 monotherapy: Fatigue, Grade 4” value (solid tumor; [1]) was 1 (7%). For the same molecule, the “TEAEs related to BNT411 monotherapy: Headache, Grade 4” value (solid tumor; [1]) was 1 (7%), the “TEAEs related to BNT411 monotherapy: Hyperbilirubinaemia, Grade 4” value (solid tumor; [1]) was 1 (7%) and the “TEAEs related to BNT411 monotherapy: Hypotension, Grade 4” value (solid tumor; [1]) was 1 (7%). The “TEAEs related to BNT411 monotherapy: Illness, Grade 4” value (solid tumor; [1]) was 1 (7%), the “TEAEs related to BNT411 monotherapy: Infusion related reaction, Grade 4” value (solid tumor; [1]) was 1 (7%) and the “TEAEs related to BNT411 monotherapy: Nausea, Grade 4” value (solid tumor; [1]) was 1 (7%). The “TEAEs related to BNT411 monotherapy: Neutropenia, Grade 4” value (solid tumor; [1]) was 1 (7%), the “TEAEs related to BNT411 monotherapy: Pruritus, Grade 4” value (solid tumor; [1]) was 1 (7%) and the “TEAEs related to BNT411 monotherapy: Pyrexia, Grade 4” value (solid tumor; [1]) was 3 (20%). The “TEAEs related to BNT411 monotherapy: Total number of patients with TEAEs, Grade 4” value (solid tumor; [1]) was 7 (47%), the “TEAEs related to BNT411 monotherapy: Anaemia, Grade 1” value (solid tumor; [2]) was 1 and the “TEAEs related to BNT411 monotherapy: Anaemia, Grade 3” value (solid tumor; [2]) was 1. The “TEAEs related to BNT411 monotherapy: Blood bilirubin increased, Grade 1” value (solid tumor; [2]) was 1, the “TEAEs related to BNT411 monotherapy: Chills, Grade 1” value (solid tumor; [2]) was 2 and the “TEAEs related to BNT411 monotherapy: Diarrhoea, Grade 2” value (solid tumor; [2]) was 1. For the same molecule, the “TEAEs related to BNT411 monotherapy: Fatigue, Grade 2” value (solid tumor; [2]) was 1, the “TEAEs related to BNT411 monotherapy: Headache, Grade 1” value (solid tumor; [2]) was 1 and the “TEAEs related to BNT411 monotherapy: Hyperbilirubinaemia, Grade 1” value (solid tumor; [2]) was 1. For the same molecule, the “TEAEs related to BNT411 monotherapy: Hypotension, Grade 1” value (solid tumor; [2]) was 1, the “TEAEs related to BNT411 monotherapy: Illness, Grade 1” value (solid tumor; [2]) was 1 and the “TEAEs related to BNT411 monotherapy: Infusion related reaction, Grade 2” value (solid tumor; [2]) was 1. For the same molecule, the “TEAEs related to BNT411 monotherapy: Nausea, Grade 1” value (solid tumor; [2]) was 1, the “TEAEs related to BNT411 monotherapy: Neutropenia, Grade 1” value (solid tumor; [2]) was 1 and the “TEAEs related to BNT411 monotherapy: Pruritus, Grade 1” value (solid tumor; [2]) was 1. For the same molecule, the “TEAEs related to BNT411 monotherapy: Pyrexia, Grade 1” value (solid tumor; [2]) was 1, the “TEAEs related to BNT411 monotherapy: Pyrexia, Grade 2” value (solid tumor; [2]) was 2 and the safety profile (solid tumor; all doses tested as of Aug. 26, 2021 (up to DL6)) was “acceptable safety profile”. For the same molecule, the “time of IFNa and IL-6 peak after treatment” value (solid tumor; day 1, treatment cycle 1) was 4 to 8 h, the “time of IP-10 and TNFa peak after treatment” value (solid tumor; day 1, treatment cycle 1) was 2.5 to 8 h and the “AEs related to BNT411 monotherapy: chills, share of patients” value (solid tumor; grade 1, Part 1A DL1 and DL6) was 13%. The “AEs related to BNT411 monotherapy: pyrexia, share of patients” value (solid tumor; grades 1 and 2, Part 1A DLs 1*, 2, and 6) was 20%, the “AEs related to BNT411 monotherapy: anaemia, share of patients” value (solid tumor; grades 1 and 3, Part 1A DL4 and DL5) was 13% and the “tumor response (RECIST 1.1), second patient” value (solid tumor; intermediate dose level between DL6 and DL7, as of Day 420) was “stable disease”. The “change in sum of target lesion diameters compared with baseline, second patient” value (solid tumor; intermediate dose level between DL6 and DL7, trial Day 86) was −26.2%, the cytokine release (solid tumor; ten patients, DL4A, DL5A, DL6A) was “dose-dependent cytokine release” and the “serious adverse events with a possible causal relationship to BNT411 monotherapy” value (solid tumor; two cases of infusion-related reaction, grades 1 and 2, same patient, Part 1A DL6) was “Two”. For the same molecule, the “tumor response (RECIST 1.1), patient started at DL4, increased to DL5 (C8D1) and DL6 (C12D1)” value (solid tumor; until trial Day 449, cutoff Oct. 13, 2022) was “stable disease”, the overall safety profile (solid tumor; up to DL6, data update October 2022) was “acceptable overall safety profile” and the TNFa induction levels (solid tumor; up to DL6A) was “remained unchanged”. The “amount of IFNα induced compared to imiquimod (R837), resiquimod (R848) and 852A” value (Human PBMCs) was “significantly higher amount” and the “concentrations inducing IFNα, fold lower compared to imiquimod (R837), resiquimod (R848) and 852A” value (Human PBMCs) was 10 to 30 fold.
